# Measurements: article PMC12085399, “Quantitative in vitro-to-in vivo extrapolation of human adrenergic and trace amine-associated receptor 1 potencies of pre-workout supplement ingredients using physiologically based kinetic modelling-based reverse dosimetry” (Archives of Toxicology, 2025)
# Several values for one entry are separate records, joined by “and”; a condition that tells them apart may be missing. Equal entries are not always repeated. Where two headings read alike, the source gives them in different places.
# What was measured:
# ADRα1D = test: PBK modelling-based reverse dosimetry of in vitro EC50 to ED50, ADRα1D; details: predicted human oral ED50 from in vitro EC50 (Pinckaers et al. [2024]) and modelled Cmax plasma venous
# Excerpt: (§1) The in vitro effect concentrations (EC50), for activation of the α1A, α1B, α1D, α2A, α2B, β1 and β2 ADR activation and the activation of TAAR1, were obtained from our previous study (Pinckaers et al. [2024]).
# TAAR1 = test: PBK modelling-based reverse dosimetry of in vitro EC50 to ED50, TAAR1; set-up: species or system human; details: for TAAR1 ED50: predicted human oral ED50 from in vitro EC50 (Pinckaers et al. [2024]) and modelled Cmax plasma venous; for dose needed to reach internal effect concentrations, times lower than the dose of higenamine: TAAR1, Fig. 6F
# Excerpt: as §1
# ADRα2A = test: PBK modelling-based reverse dosimetry of in vitro EC50 to ED50, ADRα2A; details: predicted human oral ED50 from in vitro EC50 (Pinckaers et al. [2024]) and modelled Cmax plasma venous
# Excerpt: as §1
# ADRα1A = test: PBK modelling-based reverse dosimetry of in vitro EC50 to ED50, ADRα1A; details: predicted human oral ED50 from in vitro EC50 (Pinckaers et al. [2024]) and modelled Cmax plasma venous
# Excerpt: as §1
# ADRα1B = test: PBK modelling-based reverse dosimetry of in vitro EC50 to ED50, ADRα1B; details: predicted human oral ED50 from in vitro EC50 (Pinckaers et al. [2024]) and modelled Cmax plasma venous
# Excerpt: as §1
# ADRβ2 = test: PBK modelling-based reverse dosimetry of in vitro EC50 to ED50, ADRβ2; details: predicted human oral ED50 from in vitro EC50 (Pinckaers et al. [2024]) and modelled Cmax plasma venous
# Excerpt: as §1
# [1] = In vitro hepatic clearance by human liver S9 (compound depletion); format: in vitro ADME; details: for Predicted intrinsic hepatic metabolic clearance CLmet: CLint,u scaled to a whole liver, 121 mg HLS9/g liver; for Predicted intrinsic hepatic metabolic clearance CLmet / k el at 1 µM / microsomal CLint at 1 µM: human; for metabolism in incubations without co-factor mix: HLS9 without co-factor mix; for k el at 1 µM: pH 7.4
# Protocol: In vitro intrinsic hepatic clearance (CLint) values of the phenethylamine analogues were determined in experiments with pooled human liver S9 (HLS9; Corning, Woburn, MA, USA and Gibco, USA), by measuring the rate of compound depletion. Stocks of 1 mM PEA compounds were prepared in DMSO and stocks of 10 mg/mL alamethicin were prepared in methanol. The final incubation mixtures consisted of 1 µM of PEA compound (0.1% DMSO) in 100 mM potassium phosphate buffer with 5 mM magnesium chloride (pH 7.4) supplemented with 0.025 mg/mL alamethicin (0.25% methanol) and 0.1–2 mg/mL HLS9. […] Incubation mixtures were first pre-incubated at 37 °C in a shaking incubator at 300 rpm for 5 min. After 5 min, the reaction was initiated by adding a co-factor mix in supplemented buffer with final concentrations of 3 mM nicotinamide adenine dinucleotide phosphate (NADPH; for oxidation, reduction and hydrolysis), 5 mM uridine diphosphate glucuronic acid (UDPGA; for glucuronidation), 0.2 mM adenosine 3’-phosphate 5’-phosphosulfate lithium salt hydrate (PAPS; for sulfation) and 0.2 mM S-(5’-Adenosyl)-L-methionine p-toluenesulfonate salt (SAM; for methylation). The final incubation volume was 100 µL and incubations were performed in 1.5 mL Safe-Lock Eppendorf tubes (Eppendorf) in a shaking incubator (300 rpm) at 37 °C (Eppendorf Thermomixer). Incubations were terminated by adding 100 µL ice-cold acetonitrile after, 0, 2.5, 5, 10, 20, 40 and 60 min. Then, samples were vortexed, put on ice and stored at -20 °C until the day of the LC–MS/MS analysis. Controls of incubation mixtures without HLS9 or mixtures without co-factors were also included. Two independent experiments, both in duplicate, were performed on different days. On the day of the LC–MS/MS analysis, samples were thawed and centrifuged at 15,000 rpm for 10 min. The supernatant was collected in glass insert vials for LC injection (BGB Analytik, Harderwijk, The Netherlands). Details on the methods of the LC–MS/MS analysis are described in Sect. "LC–MS/MS analysis". After determining the PEA (analogue) amount at the different time points, the CLint was calculated. The natural logarithm of compound concentrations was plotted against time and the slope of this curve represented the elimination rate constant k (in 1/min). The half-life (t1/2 in minutes) was calculated by: ln (2)/k (in 1/min). The volume of incubation (V) in µL/mg protein was determined by: 1000 / HLS9 concentration (in mg/mL). Finally, CLint could be calculated by: CLintμL/min/mg protein=VμL/mg protein∗ln2/t1/2min.
# The fraction unbound in these in vitro liver clearance incubations was calculated with the method of (Hallifax and Houston [2006]) in which unspecific binding in HLS9 incubations was assumed to be the same as in liver microsomal incubations. The in vitro obtained HLS9 CLint values were corrected for protein binding in the HLS9 incubation and were scaled to a whole liver by using a scaling factor of 121 mg HLS9/g liver (Houston and Galetin [2008]).
# ADRβ1 = test: PBK modelling-based reverse dosimetry of in vitro EC50 to ED50, ADRβ1; set-up: species or system human; details: for ADRβ1 ED50: predicted human oral ED50 from in vitro EC50 (Pinckaers et al. [2024]) and modelled Cmax plasma venous
# [2] = full reaction mix (HLS9 and co-factor mix), 1 µM, HLS9 concentration per compound (0.10-2 mg/mL), read-out: elimination rate constant k (converted)
# [3] = s9, pH 7.4, CLint app corrected for unspecific protein (HLS9) binding, read-out: In vitro CLint,u
# [4] = s9, pH 7.4, human liver S9 with co-factor mix (NADPH, UDPGA, PAPS, SAM), 1 µM, read-out: In vitro CLint app
Structure (SMILES),ADRα1D ED50 (ADRα1D),TAAR1 ED50 (TAAR1),ADRα2A ED50 (ADRα2A),ADRα1A ED50 (ADRα1A),ADRα1B ED50 (ADRα1B),ADRβ2 ED50 (ADRβ2),Predicted intrinsic hepatic metabolic clearance CLmet [1],metabolism in incubations without co-factor mix [1],"k el at 1 µM [1, 2]","microsomal CLint at 1 µM [1, 3]","microsomal CLint at 1 µM [1, 4]",ADRβ1 ED50 (ADRβ1),"predicted equivalent oral dose, times lower than the dose of higenamine (ADRβ1; ADRβ1, dose needed to reach the internal effect concentration)","dose needed to reach internal effect concentrations, times lower than the dose of higenamine (TAAR1)",k el at 1 µM [1]
"CNCC(O)c1ccc(O)cc1 (centres unmarked) [p-Synephrine, Synephrine]",2.35 mg/kg bw,127 mg/kg bw,139 mg/kg bw,3.32 mg/kg bw,0.914 mg/kg bw,– (compounds with a dash (-) did not activate the receptors in vitro at concentrations ≤ 300 µM),140 L/h,metabolized in incubations without co-factor mix,0.000198 s⁻¹,13.1 µL/min/mg,11.9 µL/min/mg,–,–,–,–
"NCCc1ccc(O)cc1 [Tyramine, tyramine]",– (compounds with a dash (-) did not activate the receptors in vitro at concentrations ≤ 300 µM),34.7 mg/kg bw,– (compounds with a dash (-) did not activate the receptors in vitro at concentrations ≤ 300 µM),– (compounds with a dash (-) did not activate the receptors in vitro at concentrations ≤ 300 µM),– (compounds with a dash (-) did not activate the receptors in vitro at concentrations ≤ 300 µM),– (compounds with a dash (-) did not activate the receptors in vitro at concentrations ≤ 300 µM),841 L/h,metabolized in incubations without co-factor mix,0.000322 s⁻¹,78.8 µL/min/mg,77.2 µL/min/mg,–,–,–,–
"Oc1ccc(CC2NCCc3cc(O)c(O)cc32)cc1 (centres unmarked) [Higenamine, higenamine]",– (compounds with a dash (-) did not activate the receptors in vitro at concentrations ≤ 300 µM),6.09 mg/kg bw,– (compounds with a dash (-) did not activate the receptors in vitro at concentrations ≤ 300 µM),– (compounds with a dash (-) did not activate the receptors in vitro at concentrations ≤ 300 µM),– (compounds with a dash (-) did not activate the receptors in vitro at concentrations ≤ 300 µM),2.92 mg/kg bw,261 L/h,–,0.000367 s⁻¹,24.4 µL/min/mg,22 µL/min/mg,0.211 mg/kg bw,–,–,–
"CC(C)NCC(O)c1ccc(O)cc1 (centres unmarked) [Isopropyloctopamine, isopropyloctopamine]",– (compounds with a dash (-) did not activate the receptors in vitro at concentrations ≤ 300 µM),1.26 mg/kg bw,– (compounds with a dash (-) did not activate the receptors in vitro at concentrations ≤ 300 µM),– (compounds with a dash (-) did not activate the receptors in vitro at concentrations ≤ 300 µM),– (compounds with a dash (-) did not activate the receptors in vitro at concentrations ≤ 300 µM),– (compounds with a dash (-) did not activate the receptors in vitro at concentrations ≤ 300 µM),27.3 L/h,–,–,2.56 µL/min/mg,2.15 µL/min/mg,–,2.5 times,4.8 times,7.17e-05 s⁻¹
"CNCC(O)c1ccccc1 (centres unmarked) [Halostachine, halostachine]",2.52 mg/kg bw,88.9 mg/kg bw,– (compounds with a dash (-) did not activate the receptors in vitro at concentrations ≤ 300 µM),10.5 mg/kg bw,1.32 mg/kg bw,– (compounds with a dash (-) did not activate the receptors in vitro at concentrations ≤ 300 µM),416 L/h,metabolized in incubations without co-factor mix,0.000312 s⁻¹,39 µL/min/mg,37.4 µL/min/mg,– (compounds with a dash (-) did not activate the receptors in vitro at concentrations ≤ 300 µM),–,–,–
"CC(CN)c1ccccc1 (stereo not drawn) [β-Methylphenethylamine, β-methylphenethylamine]",– (compounds with a dash (-) did not activate the receptors in vitro at concentrations ≤ 300 µM),0.995 mg/kg bw and 0.955 mg/kg bw,– (compounds with a dash (-) did not activate the receptors in vitro at concentrations ≤ 300 µM),– (compounds with a dash (-) did not activate the receptors in vitro at concentrations ≤ 300 µM),– (compounds with a dash (-) did not activate the receptors in vitro at concentrations ≤ 300 µM),– (compounds with a dash (-) did not activate the receptors in vitro at concentrations ≤ 300 µM),139 L/h,metabolized in incubations without co-factor mix,0.000403 s⁻¹,13 µL/min/mg,12.1 µL/min/mg,– (compounds with a dash (-) did not activate the receptors in vitro at concentrations ≤ 300 µM),–,6.4 times,–
CNC(C)C(O)c1ccc(O)cc1 (centres unmarked) [Methylsynephrine],– (compounds with a dash (-) did not activate the receptors in vitro at concentrations ≤ 300 µM),– (compounds with a dash (-) did not activate the receptors in vitro at concentrations ≤ 300 µM),– (compounds with a dash (-) did not activate the receptors in vitro at concentrations ≤ 300 µM),29.7 mg/kg bw,– (compounds with a dash (-) did not activate the receptors in vitro at concentrations ≤ 300 µM),– (compounds with a dash (-) did not activate the receptors in vitro at concentrations ≤ 300 µM),19.7 L/h,–,4.97e-05 s⁻¹,1.84 µL/min/mg,1.49 µL/min/mg,16.9 mg/kg bw,–,–,–
"CN(C)CCc1ccc(O)cc1 [Hordenine, hordenine]",11.5 mg/kg bw,15.9 mg/kg bw,234 mg/kg bw,– (compounds with a dash (-) did not activate the receptors in vitro at concentrations ≤ 300 µM),1.90 mg/kg bw,– (compounds with a dash (-) did not activate the receptors in vitro at concentrations ≤ 300 µM),27.0 L/h,–,7.33e-05 s⁻¹,2.53 µL/min/mg,2.2 µL/min/mg,– (compounds with a dash (-) did not activate the receptors in vitro at concentrations ≤ 300 µM),–,–,–
